Patent US6028195A, “Piperazine derivatives and process for the preparation thereof” (Samjin Pharmaceutical Co., Ltd., priority 1996, dated 2000)
In brackets after ≈: the same amount, converted by molar mass. Read-outs that look alike come from different tables or passages of the source.

Legend:
Assay type in all cases: cell-based
Conditions in all cases: for IC50: Homo sapiens
[1] = test system: XF 498 (human CNS); assay: SRB assay, in vitro antitumor effect against XF 498
Description: (§1) In vitro antitumor effect against human tumor cell lines.
(§2) b. 5×10^3 ~2×10^4 cells were added into each well of 96-well plate and cultured in 5% CO2 incubator, at 37° C., for 24 hours.
(§3) c. Each sample drug was dissolved in a little DMSO and diluted with the used medium to a prescribed concentration for experiments, wherein the final concentration of DMSO was controlled below 0.5%.
(§4) d. Medium of each well cultured for 24 hours as above b. was removed by aspiration. Each 200 μl of drug samples prepared in c. was added into each well and the wells were cultured for 48 hours. Tz(time zero) plates were collected at the point of time drugs were added.
(§5) e. According to the SRB assay method, cell fixing with TCA, staining with 0.4% SRB solution, washing with 1% acetic acid and elution of dye with 10 mM Tris solution were carried out on Tz plates and culture-ended plates, and then, OD values were measured at 520 nm.
(§6) a. Time zero(Tz) value was determined with measuring the SRB protein value at the point of time drugs were added.
(§7) b. Control value(C) was determined with the OD value of an well untreated with drug.
(§8) c. Drug-treated test value(T) was determined with the OD value of drug-treated well.
(§9) d. Effects of drugs were estimated with growth stimulation, net growth inhibition, net killing etc. calculated from Tz, C and T.
(§10) e. If T≥Tz, cellular response function was calculated by 100×(T-Tz)/(C-Tz), and if T<Tz, by 100×(T-Tz)/Tz.

[2] = test system: SKMEL-2 (human melanoma); assay: SRB assay, in vitro antitumor effect against SKMEL-2
Description: as §1, §2, §3, §4, §5, §6, §7, §8, §9, §10

[3] = test system: SKOV-3 (human ovarian); assay: SRB assay, in vitro antitumor effect against SKOV-3
Description: as §1, §2, §3, §4, §5, §6, §7, §8, §9, §10

[4] = test system: HCT-15 (human colon); assay: SRB assay, in vitro antitumor effect against HCT-15
Description: as §1, §2, §3, §4, §5, §6, §7, §8, §9, §10

[5] = test system: A549 (human non-small lung cell); assay: SRB assay, in vitro antitumor effect against A549
Description: as §1, §2, §3, §4, §5, §6, §7, §8, §9, §10

[6] = XF498, XF-498, 48 hours, read-out: ED50 (the source's name)
[7] = SK-MEL-2, 48 hours, read-out: ED50 (the source's name)
[8] = SK-OV-3, 48 hours, read-out: ED50 (the source's name)
[9] = HCT 15, 48 hours, read-out: ED50 (the source's name)
[10] = A549, 48 hours, read-out: ED50 (the source's name)

Row | IC50 [1, 6] [µg/mL] | IC50 [2, 7] [µg/mL] | IC50 [3, 8] [µg/mL] | IC50 [4, 9] [µg/mL] | IC50 [5, 10] [µg/mL] | Compound | also measured
1 |  |  |  |  |  | 1-{[2-(Pyridin-2-yl)quinolin-4-yl]aminocarbonyl}-4-(3,5-dimethoxyphenyl)piperazine [Example 128] | ED50 ([1]; XF-498, 48 hours): 0.44 µg/mL; ED50 ([2]; SK-MEL-2, 48 hours): 0.42 µg/mL; ED50 ([3]; SK-OV-3, 48 hours): 0.37 µg/mL; ED50 ([4]; HCT 15, 48 hours): 0.51 µg/mL; ED50 ([5]; A549, 48 hours): 0.40 µg/mL
2 |  |  |  |  |  | COc1cccc2c1C(=O)c1c(O)c3c(c(O)c1C2=O)C[C@@](O)(C(=O)CO)C[C@@H]3O[C@H]1C[C@H](N)[C@H](O)[C@H](C)O1 [Adriamycin, reference compound] | IC50 ([1]; XF498, 48 h, read-out: ED50): 0.025 µg/mL (≈ 0.046 µM); IC50 ([2]; SK-MEL-2, 48 h, read-out: ED50): 0.0108 µg/mL (≈ 0.0199 µM); IC50 ([3]; SK-OV-3, 48 h, read-out: ED50): 0.0176 µg/mL (≈ 0.0324 µM); IC50 ([4]; HCT-15, 48 h, read-out: ED50): 1.67 µg/mL (≈ 3.07 µM); IC50 ([5]; A549, 48 h, read-out: ED50): 0.0168 µg/mL (≈ 0.0309 µM)
3 |  |  |  |  |  | N.N.[Cl][Pt][Cl] [Cisplatin, reference compound] | ED50 ([1]; XF-498, 48 hours): 0.7771 µg/mL; ED50 ([2]; SK-MEL-2, 48 hours): 0.7147 µg/mL; ED50 ([3]; SK-OV-3, 48 hours): 0.7134 µg/mL; ED50 ([4]; HCT 15, 48 hours): 3.0381 µg/mL; ED50 ([5]; A549, 48 hours): 0.8184 µg/mL
4 | 0.94 (≈ 2.35 µM) | 0.007 (≈ 0.0175 µM) | 0.022 (≈ 0.0549 µM) | 0.093 (≈ 0.232 µM) | 0.007 (≈ 0.0175 µM) | CCc1cc(NC(=O)N2CCN(c3ccccc3SC)CC2)c(OC)nc1C [Example 4, 1-[(5-Ethyl-6-methyl-2-methoxypyridin-3-yl)aminocarbonyl]-4-(2-methylthiophenyl)piperazine] | 
5 | > 10 | 0.6 (≈ 1.52 µM) | 0.96 (≈ 2.43 µM) | 0.96 (≈ 2.43 µM) | 0.71 (≈ 1.8 µM) | C=C(C)c1ccccc1N1CCN(C(=O)Nc2cc(CC)c(C)nc2OC)CC1 [Example 5, 1-[(5-Ethyl-6-methyl-2-methoxypyridin-3-yl)aminocarbonyl]-4-(2-isopropenylphenyl)piperazine] | 
6 | 0.11 (≈ 0.277 µM) | 0.21 (≈ 0.53 µM) | 0.07 (≈ 0.177 µM) | 0.11 (≈ 0.277 µM) | 0.15 (≈ 0.378 µM) | CCCc1cc(NC(=O)N2CCN(c3cc(C)cc(C)c3)CC2)c(OC)nc1C [Example 9, 1-[(2-Methoxy-6-methyl-5-propylpyridin-3-yl)aminocarbonyl]-4-(3,5-dimethylphenyl)piperazine] | 
7 | 0.73 (≈ 1.83 µM) | 0.62 (≈ 1.56 µM) | 0.56 (≈ 1.41 µM) | 0.71 (≈ 1.78 µM) | 0.91 (≈ 2.28 µM) | CCCc1cc(NC(=O)N2CCN(c3ccccc3OC)CC2)c(OC)nc1C [Example 11, 1-[(2-Methoxy-6-methyl-5-propylpyridin-3-yl)aminocarbonyl]-4-(2-methoxyphenyl)piperazine] | 
8 | 0.092 (≈ 0.234 µM) | 0.09 (≈ 0.229 µM) | 0.04 (≈ 0.102 µM) | 0.05 (≈ 0.127 µM) | 0.09 (≈ 0.229 µM) | COc1nc(C)c(C)cc1NC(=S)N1CCN(c2cc(F)cc(F)c2)CC1 [Example 23, 1-[(5,6-Dimethyl-2-methoxypyridin-3-yl)aminothiocarbonyl]-4-(3,5-difluorophenyl)piperazine] | 
9 | 0.234 (≈ 0.628 µM) | 0.01 (≈ 0.0268 µM) | 0.006 (≈ 0.0161 µM) | 0.01 (≈ 0.0268 µM) | 0.03 (≈ 0.0805 µM) | COc1nc(C)c(C)cc1NC(=S)N1CCN(c2cccc(O)c2)CC1 [Example 24, 1-[(5,6-Dimethyl-2-methoxypyridin-3-yl)aminothiocarbonyl]-4-(3-hydroxyphenyl)piperazine] | 
10 | 0.14 (≈ 0.327 µM) | 0.08 (≈ 0.187 µM) | 0.12 (≈ 0.28 µM) | 0.16 (≈ 0.373 µM) | 0.21 (≈ 0.49 µM) | COc1cc(OC)cc(N2CCN(C(=O)Nc3cc(C(C)=O)c(C)nc3OC)CC2)c1 [Example 46, 1-[(5-Acetyl-2-methoxy-6-methylpyridin-3-yl)amninocarbonyl]-4-(3,5-dimethoxyphenyl)piperazine] | 
11 | 0.64 (≈ 1.61 µM) | 0.47 (≈ 1.19 µM) | 0.62 (≈ 1.56 µM) | 0.81 (≈ 2.04 µM) | 0.92 (≈ 2.32 µM) | COc1nc(C)c(C(C)=O)cc1NC(=O)N1CCN(c2cc(C)cc(C)c2)CC1 [Example 47, 1-[(5-Acetyl-2-methoxy-6-methylpyridin-3-yl)aminocarbonyl]-4-(3,5-dimethylphenyl)piperazine] | 
12 | 0.67 (≈ 1.51 µM) | 0.64 (≈ 1.44 µM) | 0.47 (≈ 1.06 µM) | 0.71 (≈ 1.6 µM) | 0.47 (≈ 1.06 µM) | COc1cc(OC)cc(N2CCN(C(=S)Nc3cc(C(C)=O)c(C)nc3OC)CC2)c1 [Example 53, 1-[(5-Acetyl-2-methoxy-6-methylpyridin-3-yl)aminothiocarbonyl]-4-(3,5-dimethoxyphenyl)piperazine] | 
13 | 0.03 (≈ 0.0672 µM) | 0.11 (≈ 0.246 µM) | 0.1 (≈ 0.224 µM) | 0.07 (≈ 0.157 µM) | 0.04 (≈ 0.0896 µM) | COc1cc(OC)cc(N2CCN(C(=S)Nc3cc(C(C)O)c(C)nc3OC)CC2)c1 (centres unmarked) [Example 63, 1-{[5-(1-Hydroxyethyl)-2-methoxy-6-methylpyridin-3-yl]aminothiocarbonyl}-4-(3,5-dimethoxyphenyl)piperazine] | 
14 | 0.23 (≈ 0.555 µM) | 0.52 (≈ 1.25 µM) | 0.56 (≈ 1.35 µM) | 0.37 (≈ 0.892 µM) | 0.42 (≈ 1.01 µM) | COc1nc(C)c(C(C)O)cc1NC(=S)N1CCN(c2cc(C)cc(C)c2)CC1 (centres unmarked) [Example 64, 1-{[5-(1-Hydroxyethyl)-2-methoxy-6-methylpyridin-3-yl]aminothiocarbonyl}-4-(3,5-dimethylphenyl)piperazine] | 
15 | 0.13 (≈ 0.335 µM) | 0.09 (≈ 0.232 µM) | 0.09 (≈ 0.232 µM) | 0.12 (≈ 0.309 µM) | 0.19 (≈ 0.489 µM) | C=Cc1cc(NC(=O)N2CCN(c3cc(F)cc(F)c3)CC2)c(OC)nc1C [Example 75, 1-[(2-Methoxy-6-methyl-5-vinylpyridin-3-yl)aminocarbonyl]-4-(3,5-difluorophenyl)piperazine] | 
16 | 0.104 (≈ 0.241 µM) | 0.039 (≈ 0.0904 µM) | 0.117 (≈ 0.271 µM) | 0.1 (≈ 0.232 µM) | 0.048 (≈ 0.111 µM) | COc1nc2ccccc2cc1NC(=O)N1CCN(c2cc(Cl)cc(Cl)c2)CC1 [Example 85, 1-[(2-Methoxyquinolin-3-yl)aminocarbonyl]-4-(3,5-dichlorolphenyl)piperazine] | 
17 | 0.52 (≈ 1.15 µM) | 0.4 (≈ 0.888 µM) | 0.41 (≈ 0.91 µM) | 0.36 (≈ 0.799 µM) | 0.43 (≈ 0.954 µM) | CCN(C(=O)N1CCN(c2cc(OC)cc(OC)c2)CC1)c1cc2ccccc2nc1OC [Example 99, 1-[N-Ethyl-N-(2-methoxyquinolin-3-yl)aminocarbonyl]-4-(3,5-dimethoxyphenyl)piperazine] | 
18 | 0.66 (≈ 1.42 µM) | 3.47 (≈ 7.47 µM) | 3.02 (≈ 6.5 µM) | 4.21 (≈ 9.06 µM) | 4.54 (≈ 9.77 µM) | COc1cc(OC)cc(N2CCN(C(=O)N(c3cc4ccccc4nc3OC)C(C)C)CC2)c1 [Example 100] | 
19 | 0.36 (≈ 0.89 µM) | 0.49 (≈ 1.21 µM) | 0.46 (≈ 1.14 µM) | 0.33 (≈ 0.816 µM) | 0.52 (≈ 1.29 µM) | COc1nc2ccccc2cc1N(C)C(=O)N1CCN(c2cc(C)cc(C)c2)CC1 [Example 103, 1-[N-(2-Methoxyquinolin-3-yl)-N-methylaminocarbonyl]-4-(3,5-dimethylphenyl)piperazine] | 
20 | 0.53 (≈ 1.21 µM) | 0.86 (≈ 1.96 µM) | 0.91 (≈ 2.08 µM) | 0.49 (≈ 1.12 µM) | 0.47 (≈ 1.07 µM) | COc1cc(OC)cc(N2CCN(C(=S)Nc3cc4ccccc4nc3OC)CC2)c1 [Example 109, 1-[(2-Methoxyquinolin-3-yl)aminothiocarbonyl]-4-(3,5-dimethoxyphenyl)piperazine] | 
21 | 0.81 (≈ 1.99 µM) | 0.97 (≈ 2.39 µM) | 1.06 (≈ 2.61 µM) | 0.69 (≈ 1.7 µM) | 0.52 (≈ 1.28 µM) | COc1nc2ccccc2cc1NC(=S)N1CCN(c2cc(C)cc(C)c2)CC1 [Example 110, 1[(2-Methoxyquinolin-3-yl)aminothiocarbonyl]-4-(3,5-dimethylphenyl)piperazine] | 

Row | Compound | IC50 [1, 6] [µg/mL] | IC50 [2, 7] [µg/mL] | IC50 [3, 8] [µg/mL] | IC50 [4, 9] [µg/mL] | IC50 [5, 10] [µg/mL] | also measured
22 | CCc1nc(OC)c(NC(=O)N2CCN(c3cccc(O)c3)CC2)cc1C [Example 14, 1-[(6-Ethyl-2-methoxy-5-methylpyridin-3-yl)aminocarbonyl]-4-(3-hydroxyphenyl)piperazine] | 0.16 (≈ 0.432 µM) |  | 0.02 (≈ 0.054 µM) | 0.007 (≈ 0.0189 µM) | 0.022 (≈ 0.0594 µM) | IC50 ([2]; SK-MEL-2, 48 h, read-out: ED50): 0.001 µg/mL (≈ 0.0027 µM)
23 | CCCc1nc(OC)c(NC(=O)N2CCN(c3cccc(O)c3)CC2)cc1C [Example 17, 1-[(2-Methoxy-5-methyl-6-propylpyridin-3-yl)aminocarbonyl]-4-(3-hydroxyphenyl)piperazine] |  | 0.021 (≈ 0.0546 µM) | 0.01 (≈ 0.026 µM) | 0.008 (≈ 0.0208 µM) | 0.018 (≈ 0.0468 µM) | IC50 ([1]; XF498, 48 h, read-out: ED50): 0.077 µg/mL (≈ 0.2 µM)
24 | CCCc1nc(OC)c(NC(=S)N2CCN(c3cc(C)cc(C)c3)CC2)cc1C [Example 27, 1-[(2-Methoxy-5-methyl-6-propylpyridin-3-yl)aminothiocarbonyl]-4-(3,5-dimethylphenyl)piperazine] |  | 0.01 (≈ 0.0242 µM) | 0.11 (≈ 0.267 µM) | 0.165 (≈ 0.4 µM) | 0.02 (≈ 0.0485 µM) | IC50 ([1]; XF498, 48 h, read-out: ED50): 0.046 µg/mL (≈ 0.111 µM)
25 | COc1nc2ccccc2cc1NC(=O)N1CCN(c2cccc(Cl)c2)CC1 [Example 88, 1-[(2-Methoxyquinolin-3-yl)aminocarbonyl]-4-(3-chlorophenyl)piperazine] | 0.009 (≈ 0.0227 µM) | 0.02 (≈ 0.0504 µM) | 0.043 (≈ 0.108 µM) |  |  | IC50 ([4]; HCT-15, 48 h, read-out: ED50): 0.011 µg/mL (≈ 0.0277 µM); IC50 ([5]; A549, 48 h, read-out: ED50): 0.014 µg/mL (≈ 0.0353 µM)
